Test systems include HCT-15 colon; LOX IMVI melanoma; TK-10 renal; NCI-H226 lung; KM12 colon; ACHN renal; SF-268 CNS; SW-620 colon; OVCAR-8 ovarian; RPMI-8226 leukemia; NCI/ADR-RES ovarian; HT29 colon; SK-OV-3 ovarian; MDA-MB-435; SK-MEL-2 melanoma; SK-MEL-5 melanoma; EKVX NSCLC; SNB-75 CNS; UO-31 renal; HOP-92 NSCLC.
What all share (assay): NCI tumour cell line growth inhibition, 48 h

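48-hour exposure; five concentrations; linearly interpolated endpoints. TGI is the concentration that stops growth completely.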 A value given as a limit tells only on which side of the number the result lay.

Take `COC(=O)[C@H]1C[C@H]1NC(=O)C(CC(=O)OCc1ccccc1)NC(=O)OCc1ccccc1` (stereo partly specified): the TGI in the test on HCT-15 colon was above 100 µM; in the test with LOX IMVI melanoma, above 100 µM; in the test with TK-10 renal, above 100 µM; in the test on NCI-H226 lung, above 100 µM; with KM12 colon it was 77.1 µM; in the test with ACHN renal, above 100 µM. For the same compound, the TGI was above 100 µM in the test on SF-268 CNS; above 100 µM with SW-620 colon; above 100 µM in the test with OVCAR-8 ovarian; 50.2 µM with RPMI-8226 leukemia; 91.5 µM with NCI/ADR-RES ovarian; above 100 µM with HT29 colon. Besides, the TGI was above 100 µM in the test on SK-OV-3 ovarian; 69.8 µM with MDA-MB-435; 56.9 µM in the test with SK-MEL-2 melanoma; 55.9 µM in the test with SK-MEL-5 melanoma; above 100 µM in the test on EKVX NSCLC; above 100 µM in the test on SNB-75 CNS.
`O=C1C(C(c2ccccc2)N2CCOCC2)=C(O)C(c2ccccc2)N1c1ccccc1` (stereo unspecified): the TGI with HCT-15 colon, in the test with LOX IMVI melanoma, with TK-10 renal, with NCI-H226 lung, in the test on KM12 colon and in the test on ACHN renal was above 10 µM throughout. Further, the TGI in the test with SF-268 CNS, in the test on SW-620 colon, in the test with OVCAR-8 ovarian, in the test with RPMI-8226 leukemia, in the test with NCI/ADR-RES ovarian and with HT29 colon was above 10 µM in each case. In addition, the TGI in the test with SK-OV-3 ovarian, in the test with MDA-MB-435, in the test on SK-MEL-2 melanoma, in the test on UO-31 renal, in the test with SK-MEL-5 melanoma and in the test with EKVX NSCLC was above 10 µM in each case. This compound returned a TGI in the test with SNB-75 CNS above 10 µM.
`CC1(C)CC(=O)C2=C(C1)S/C(=C1/SC3=C(S1)C(=O)CC(C)(C)C3)S2`: the TGI with HCT-15 colon, in the test on LOX IMVI melanoma, in the test on TK-10 renal, in the test with KM12 colon, in the test on ACHN renal and in the test on SF-268 CNS was above 251 µM in each case. Also, the TGI in the test with SW-620 colon, in the test on OVCAR-8 ovarian, in the test on RPMI-8226 leukemia, in the test on HT29 colon, in the test on SK-OV-3 ovarian and in the test on SK-MEL-2 melanoma was above 251 µM each time. The TGI with UO-31 renal, with HOP-92 NSCLC, in the test on EKVX NSCLC and in the test on SNB-75 CNS was above 251 µM each time.
As for `CC(C)OC(=O)C1=C(O)c2ccccc2S(=O)(=O)N1`, the TGI in the test on HCT-15 colon, in the test with LOX IMVI melanoma, in the test with TK-10 renal, in the test on NCI-H226 lung, with KM12 colon and in the test with ACHN renal was above 100 µM each time. Also, the TGI in the test on SF-268 CNS, in the test on SW-620 colon, in the test on OVCAR-8 ovarian, with HT29 colon, in the test on SK-OV-3 ovarian and with SK-MEL-2 melanoma was above 100 µM each time. The TGI with SK-MEL-5 melanoma, in the test with EKVX NSCLC and with SNB-75 CNS was above 100 µM each time.
With `COc1ccc(OC)c(C23CCCC(C2)N(C)CC3)c1` (stereo unspecified), the TGI in the test on HCT-15 colon is above 100 µM; in the test on TK-10 renal it was above 100 µM; with KM12 colon it was 33.5 µM; in the test on ACHN renal, 78.1 µM; in the test on SF-268 CNS, above 100 µM; in the test with RPMI-8226 leukemia it was 42.2 µM. In addition, the TGI in the test with NCI/ADR-RES ovarian was above 100 µM; with HT29 colon, 49.1 µM; in the test with MDA-MB-435, 37.9 µM; in the test on SK-MEL-2 melanoma it was 53 µM; in the test with UO-31 renal it was above 100 µM; in the test on EKVX NSCLC, above 100 µM.
With `Cc1ccc(S(=O)(=O)N/N=c2\c(C)c(C3=NS(=O)(=O)c4cc(S(N)(=O)=O)c(Cl)cc4N3)oc3c(Cl)cc(Cl)cc23)cc1`, the TGI with HCT-15 colon, in the test on LOX IMVI melanoma, with TK-10 renal, in the test on NCI-H226 lung, in the test with KM12 colon and in the test with ACHN renal was above 100 µM each time. Also, the TGI in the test with SF-268 CNS was above 100 µM; in the test on SW-620 colon, 22.9 µM; in the test on OVCAR-8 ovarian it was above 100 µM; with RPMI-8226 leukemia it was above 100 µM; in the test on HT29 colon, above 100 µM; in the test on SK-OV-3 ovarian, above 100 µM. Besides, the TGI with SK-MEL-2 melanoma, in the test with UO-31 renal, in the test with SK-MEL-5 melanoma, in the test on HOP-92 NSCLC, in the test on EKVX NSCLC and in the test on SNB-75 CNS was above 100 µM each time.
`COC(=O)C1C(OC(=O)C(Cl)(c2ccccc2)c2ccccc2)CC2CCC1N2C` (stereo unspecified): the TGI in the test with HCT-15 colon, with LOX IMVI melanoma, with TK-10 renal, with NCI-H226 lung, in the test on KM12 colon and with ACHN renal was above 100 µM in each case. Also, the TGI with SF-268 CNS, in the test with SW-620 colon, in the test on OVCAR-8 ovarian, in the test with RPMI-8226 leukemia, in the test on NCI/ADR-RES ovarian and with HT29 colon was above 100 µM throughout. The TGI with SK-OV-3 ovarian, with MDA-MB-435, in the test on UO-31 renal, in the test on SK-MEL-5 melanoma, with EKVX NSCLC and in the test on SNB-75 CNS was above 100 µM in each case.
For the compound `COc1cc(/C=C/C(=O)OCCc2ccccc2)ccc1O`, the TGI in the test on HCT-15 colon was 44.6 µM; in the test on LOX IMVI melanoma, 36.1 µM; in the test on TK-10 renal it was 28.3 µM; in the test with KM12 colon, 30.3 µM; with ACHN renal it was 33.9 µM; in the test on SF-268 CNS, 47.4 µM. In addition, the TGI in the test on SW-620 colon amounted to 41.2 µM; in the test on OVCAR-8 ovarian it was 79.3 µM; in the test on RPMI-8226 leukemia it was 65.9 µM; in the test on NCI/ADR-RES ovarian, 60.6 µM; in the test with HT29 colon it was 44.3 µM; in the test with SK-OV-3 ovarian, 29.7 µM. The TGI in the test with MDA-MB-435 came out at 27.3 µM; in the test with SK-MEL-2 melanoma, 42.7 µM; in the test on UO-31 renal it was 27.3 µM; in the test with SK-MEL-5 melanoma it was 33.7 µM; with EKVX NSCLC, 33.5 µM; in the test on SNB-75 CNS, 30.2 µM.
For `Cc1ccc(C[P+]2(c3ccccc3)CCCCC2)cc1`, the TGI in the test with HCT-15 colon, in the test with LOX IMVI melanoma, in the test on TK-10 renal, with NCI-H226 lung, with KM12 colon and in the test with ACHN renal was above 100 µM throughout. Further, the TGI was above 100 µM in the test on SW-620 colon; above 100 µM with OVCAR-8 ovarian; 46.8 µM in the test with RPMI-8226 leukemia; above 100 µM with HT29 colon; above 100 µM in the test on SK-OV-3 ovarian; 80.6 µM in the test on SK-MEL-2 melanoma. The TGI in the test on UO-31 renal was above 100 µM; in the test with SK-MEL-5 melanoma, 24.4 µM; in the test with EKVX NSCLC, above 100 µM; in the test with SNB-75 CNS, 76.9 µM.
As for `O=C(O)c1ccc([N+]2=Cn3c(nc4ccccc43)C2)cc1`, the TGI in the test with HCT-15 colon, with LOX IMVI melanoma, in the test on TK-10 renal, in the test with NCI-H226 lung, with KM12 colon and in the test on ACHN renal was above 100 µM in each case. In addition, the TGI in the test on SF-268 CNS, with SW-620 colon, with OVCAR-8 ovarian, in the test with RPMI-8226 leukemia, with NCI/ADR-RES ovarian and in the test with HT29 colon was above 100 µM each time. The TGI with SK-OV-3 ovarian, in the test on MDA-MB-435, in the test with SK-MEL-2 melanoma, in the test on UO-31 renal, in the test on SK-MEL-5 melanoma and in the test on EKVX NSCLC was above 100 µM each time. Moreover, the TGI in the test with SNB-75 CNS was above 100 µM.
`COc1cc(-c2cc(=O)c3c(O)c(OC)c(OC)c(OC)c3o2)ccc1O`: the TGI was 43.1 µM in the test on HCT-15 colon; 68.8 µM in the test with LOX IMVI melanoma; 78.3 µM in the test on TK-10 renal; above 100 µM in the test with KM12 colon; above 100 µM in the test on ACHN renal; above 100 µM in the test on SF-268 CNS. Further, the TGI with SW-620 colon is above 100 µM; in the test with OVCAR-8 ovarian, 48.4 µM; with RPMI-8226 leukemia, above 100 µM; in the test with SK-OV-3 ovarian, 76 µM; in the test on SK-MEL-2 melanoma, 46.1 µM; in the test on UO-31 renal, above 100 µM. The results for the TGI in the test on SK-MEL-5 melanoma, in the test on HOP-92 NSCLC and with EKVX NSCLC were 47.8 µM, 40.1 µM and above 100 µM, respectively.
With `C=CCn1c(C23CC4CC(CC(C4)C2)C3)n[nH]c1=S`, the TGI in the test on HCT-15 colon, with LOX IMVI melanoma, with TK-10 renal, in the test on NCI-H226 lung, in the test on KM12 colon and in the test on ACHN renal was above 100 µM in each case. Besides, the TGI in the test on SF-268 CNS, with SW-620 colon, in the test with OVCAR-8 ovarian, in the test on RPMI-8226 leukemia, in the test with NCI/ADR-RES ovarian and with HT29 colon was above 100 µM in each case. Further, the TGI with SK-OV-3 ovarian, with MDA-MB-435, with SK-MEL-2 melanoma, with UO-31 renal and with SNB-75 CNS was above 100 µM in each case.
Take `CCOC(=O)N(c1ccccc1)c1cc(=O)n2ccccc2n1`: the TGI with HCT-15 colon, in the test on LOX IMVI melanoma, in the test with TK-10 renal, in the test on NCI-H226 lung, with KM12 colon and in the test on ACHN renal was above 100 µM each time. Further, the TGI with SF-268 CNS, in the test with SW-620 colon, with OVCAR-8 ovarian, with RPMI-8226 leukemia, in the test on NCI/ADR-RES ovarian and with HT29 colon was above 100 µM throughout. Moreover, the TGI with SK-OV-3 ovarian, in the test on MDA-MB-435, in the test on UO-31 renal, in the test with SK-MEL-5 melanoma, with EKVX NSCLC and in the test on SNB-75 CNS was above 100 µM in each case.
As for `CC(Oc1ccc(OCC2CCCCC2)cc1)C(N)=O` (stereo unspecified), the TGI in the test on HCT-15 colon, with LOX IMVI melanoma, in the test with TK-10 renal, in the test with NCI-H226 lung, with KM12 colon and in the test on ACHN renal was above 100 µM throughout. For the same compound, the TGI with SF-268 CNS, in the test on SW-620 colon, in the test on OVCAR-8 ovarian, with HT29 colon, in the test on SK-OV-3 ovarian and in the test with SK-MEL-2 melanoma was above 100 µM each time. The TGI in the test on UO-31 renal, with SK-MEL-5 melanoma and in the test with SNB-75 CNS was above 100 µM throughout.
For the compound `O=C(O)c1ccc(-c2nc3ccc(Cl)cc3[nH]2)cc1`, the TGI with HCT-15 colon, in the test on NCI-H226 lung, in the test with KM12 colon, in the test on SW-620 colon, in the test with OVCAR-8 ovarian and in the test with RPMI-8226 leukemia was above 100 µM throughout. For the same compound, the TGI with NCI/ADR-RES ovarian, with HT29 colon, in the test with SK-OV-3 ovarian, in the test with SK-MEL-2 melanoma, in the test with UO-31 renal and in the test with SK-MEL-5 melanoma was above 100 µM in each case. Further, the TGI with HOP-92 NSCLC, in the test with EKVX NSCLC and in the test with SNB-75 CNS was above 100 µM in each case.
As to `Cc1nc2ccccc2c(=O)n1NC(=O)c1ccc([N+](=O)[O-])cc1`, the TGI with LOX IMVI melanoma, in the test on TK-10 renal, in the test on NCI-H226 lung, with KM12 colon, with ACHN renal and with SF-268 CNS was above 100 µM throughout. Further, the TGI in the test on SW-620 colon, with OVCAR-8 ovarian, with RPMI-8226 leukemia, in the test on HT29 colon, in the test with SK-OV-3 ovarian and with MDA-MB-435 was above 100 µM in each case. The TGI in the test on UO-31 renal, in the test with SK-MEL-5 melanoma, in the test with HOP-92 NSCLC, with EKVX NSCLC and with SNB-75 CNS was above 100 µM each time.
